US5084443A, “Promoting expression of acetylcholine receptors with LHRH antagonist” (Biomeasure, Inc., priority 1989, dated 1992)
Read-outs that look alike come from different tables or passages of the source.

Columns and labels:
denervated EDL muscle = assay: Denervation atrophy of EDL muscle after peroneal nerve crush (wet muscle weight, protein content); type: in vivo, Sprague Dawley rats; conditions: for Muscle wt / Proteins: peptide crushed; for Muscle wt: wet EDL weight; for Proteins: ug protein content per mg muscle weight
Method: LHRH analogs can be tested for effectiveness in treating injured nerve tissue or preserving muscle mass according to the testing procedures described below for the LHRH analog BIM-21009. BIM-21009 is an antagonist of LHRH activity having the amino acid formula N-Acetyl-D-Naphthylalanine-D-para-Cl-Phe-D-Phe-Ser-Tyr-D-Arg-Phe-Arg-Pro-D-Ala-NH2. BIM-21009 was administered to animals both prior to and after denervation. The animals were prepared for treatment as follows.
Adult male and female Sprague Dawley rats (Hilltop) weighing approximately 250-275 g were housed in groups of three of the same sex and provided with Purina rat chow and water ad libitum. They were maintained in a 12L:12D photoperiod with lights off at 19:00 hr. Animals were divided into 2 groups having six subdivisions each of 5-7 animals: (1) four days post-lesion: "sham crushed" (i.e., sham nerve crush) males and females, "intact crushed" (i.e., nerve crush control group) males and females, and "LHRH antagonist treated and crushed" (i.e., peptide treatment after nerve crush, also referred to as "peptide crushed") males and females; and (2) twelve days post-lesion: sham crushed males and females, intact crushed males and females, and LHRH treated and crushed males and females.
All animals were anesthetized with an 8% solution of chloral hydrate (0.4 g/kg). An incision was made on the left leg and the peroneal nerve was exposed at its site of entrance into the peroneal longus muscle. The nerve was crushed with a watchmaker forcep having a uniformly filed tip of 0.2 mm, by applying pressure on the nerve for 10 seconds, rotating the forceps, and applying pressure again on the opposite side for another 10 seconds. After crush, this area of approximately 1 mm becomes translucid. This modified crush method gives well-defined axonal interruption without disrupting the connective tissue sheaths or blood vessels in the region.
All chemically treated animals received 1 s.c. injection of the LHRH antagonist BIM-21009 at a dosage of 5 mg/kg 24 hrs prior to denervation. Animals in the 12 day groups received an additional injection of 5 mg/kg 6 days after the first injection.
Dissections were performed between 13:00 and 15:00 hrs. The peroneal nerve was allowed to regenerate for 4 or 12 days, after which the animals were anesthetized with chloral hydrate (0.4 g/kg), the extensor digitorum longus ("EDL") was dissected, frozen on powdered dry ice and stored at -70° C. until the day of the assay.
The Lowry Method was used for protein determinations. Statistical analysis was performed using 2×2 ANOVA, 1 way ANOVA. Tukey's HSD test was used for post-hoc comparisons.

acetylcholine receptors = type: in vivo, Sprague Dawley rats; conditions: for AChR (cpm) / AChR: peptide crushed; for AChR: fmoles per ug protein
[1] = females, 4 days post-lesion, 5 mg/kg s.c.
[2] = females, 12 days post-lesion, 2 x 5 mg/kg s.c.
[3] = males, 4 days post-lesion, 5 mg/kg s.c.
[4] = males, 12 days post-lesion, 2 x 5 mg/kg s.c.

**Q.** Which results are given for “N-Acetyl-D-Naphthylalanine-D-para-Cl-Phe-D-Phe-Ser-Tyr-D-Arg-Phe-Arg-Pro-D-Ala-NH2 [BIM-21009]”?
**A.** atrophy of the denervated EDL muscle vs crushed control group (denervated EDL muscle; both at 4 days and at 12 days post-lesion, less striking in females than in males): significantly decreased; recovery from the crush-induced muscle atrophy: protein content (denervated EDL muscle; females as well as males (FIG. 2)): increase in protein content rather than fat accumulation or edema; Muscle wt (denervated EDL muscle; females, 4 days post-lesion, 5 mg/kg s.c. 24 hrs prior to denervation): 83.8 mg; Proteins (denervated EDL muscle; [1]): 4.58 µg; Muscle wt (denervated EDL muscle; females, 12 days post-lesion, 5 mg/kg s.c. 24 hrs prior to denervation plus 5 mg/kg 6 days later): 84.0 mg; Proteins (denervated EDL muscle; [2]): 4.23 µg; protection of EDL muscle from denervation atrophy (denervated EDL muscle; males): protects the EDL muscle in the males from denervation atrophy; Muscle wt (denervated EDL muscle; males, 4 days post-lesion, 5 mg/kg s.c. 24 hrs prior to denervation): 81.2 mg; Proteins (denervated EDL muscle; [3]): 4.05 µg; Muscle wt (denervated EDL muscle; males, 12 days post-lesion, 5 mg/kg s.c. 24 hrs prior to denervation plus 5 mg/kg 6 days later): 83.1 mg; Proteins (denervated EDL muscle; [4]): 4.34 µg; ratio of cpm/mg muscle vs intact crushed groups (acetylcholine receptors; both males and females (FIG. 5)): higher ratio of cpm/mg muscle; number of ACh receptors (acetylcholine receptors; both sexes, at 4 days after nerve crush, more marked in males): dramatic increase; time course of effect on ACh receptor number (acetylcholine receptors; day 4 vs day 12 post-lesion): maximal effect at day 4 post-lesion and a minimal or null effect by day 12; AChR (cpm) (acetylcholine receptors; [1]): 23.39 cpm; AChR (acetylcholine receptors; [1]): 90.07 fmol; AChR (cpm) (acetylcholine receptors; [2]): 15.34 cpm; AChR (acetylcholine receptors; [2]): 65.74 fmol; ratio of AChR number/muscle (fM AChR/mg muscle or fM/ug protein) vs crushed group with intact gonads (acetylcholine receptors; male and female rats (FIGS. 3 and 4)): significantly higher ratio; AChR number/muscle weight ratio vs crushed untreated controls (acetylcholine receptors; males with intact gonads (FIG. 4)): higher than in the crushed untreated controls; AChR (cpm) (acetylcholine receptors; [3]): 38.37 cpm; AChR (acetylcholine receptors; [3]): 166.96 fmol; AChR (cpm) (acetylcholine receptors; [4]): 19.01 cpm; AChR (acetylcholine receptors; [4]): 82.09 fmol
